We go through 13 compounds from ChEMBL document CHEMBL5154659, “A3 adenosine receptor agonists containing dopamine moieties for enhanced interspecies affinity” (Eur J Med Chem, 2022).

Molecules are shown by their SMILES.

As usually defined, the Ki is a dissociation constant, usually derived from enzyme kinetics or from competition with a known ligand. As usually defined, the inhibition is the relative decrease from the control value, in per cent. Broadly, the EC50 is the concentration that produces a half-maximal response.

T3 sequence (P29274 whole entry): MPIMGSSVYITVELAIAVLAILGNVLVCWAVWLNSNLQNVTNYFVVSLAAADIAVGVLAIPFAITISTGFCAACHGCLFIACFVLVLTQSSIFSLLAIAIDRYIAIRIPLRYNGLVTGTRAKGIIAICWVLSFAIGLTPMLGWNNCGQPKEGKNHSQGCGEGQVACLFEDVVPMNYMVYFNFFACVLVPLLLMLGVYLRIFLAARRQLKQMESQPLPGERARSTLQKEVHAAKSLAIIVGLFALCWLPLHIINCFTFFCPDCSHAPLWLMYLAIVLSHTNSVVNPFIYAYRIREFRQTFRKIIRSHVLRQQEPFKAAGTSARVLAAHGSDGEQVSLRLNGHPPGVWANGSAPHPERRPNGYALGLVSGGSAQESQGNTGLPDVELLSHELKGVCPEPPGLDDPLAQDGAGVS

The target in one assay is T1, Adenosine receptor A3 (Mus musculus, UniProt Q61618).
T1 sequence (Q61618 whole entry): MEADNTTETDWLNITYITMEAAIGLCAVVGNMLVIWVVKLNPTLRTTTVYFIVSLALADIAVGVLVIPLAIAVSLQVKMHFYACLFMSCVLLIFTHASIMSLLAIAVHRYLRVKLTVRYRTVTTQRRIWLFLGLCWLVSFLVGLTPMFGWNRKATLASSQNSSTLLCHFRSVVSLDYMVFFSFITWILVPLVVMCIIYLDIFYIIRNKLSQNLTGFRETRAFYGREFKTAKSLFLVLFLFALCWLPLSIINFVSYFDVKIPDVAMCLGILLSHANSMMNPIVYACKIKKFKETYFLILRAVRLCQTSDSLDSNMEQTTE
Put plainly: Displacement of [125I] N6-4-amino-3-iodobenzyl adenosine 5-N-methyluronamide from mouse A3A receptor stably expressed in HEK293 cell membrane by radioligand inhibition assay. The assay is classed as cell membranes.
Conditions: not given
Background: Displacement assays read how much labelled ligand stays bound in the presence of the test substance.
`CNC(=O)[C@@]12C[C@@H]1[C@@H](n1cnc3c(NCCc4ccc(OC)c(O)c4)nc(C#Cc4ccc(Cl)s4)nc31)[C@H](O)[C@@H]2O`: affinity was put at a Ki of 1.7 nM.
On the same count and under the same terms, under `CNC(=O)[C@@]12C[C@@H]1[C@@H](n1cnc3c(NCCc4ccc(O)c(OC)c4)nc(C#Cc4ccc(Cl)s4)nc31)[C@H](O)[C@@H]2O` stands 3.16 nM.
Still for that read-out and setting: under `CNC(=O)[C@@]12C[C@@H]1[C@@H](n1cnc3c(NCCc4ccc(O)c(OC)c4)nc(C#Cc4cccs4)nc31)[C@H](O)[C@@H]2O` stands 1.26 nM; under `CCOC(=O)[C@@]12C[C@@H]1[C@@H](n1cnc3c(NCCc4ccc(OC)c(O)c4)nc(C#Cc4ccc(Cl)s4)nc31)[C@H](O)[C@@H]2O`, 104 nM.
Take `CNC(=O)[C@@]12C[C@@H]1[C@@H](n1cnc3c(NCCc4ccc(OC)c(OC)c4)nc(I)nc31)[C@H](O)[C@@H]2O`: the Ki amounted to 5.31 nM.
Consider `CNC(=O)[C@@]12C[C@@H]1[C@@H](n1cnc3c(NCCc4ccc(OC)c(O)c4)nc(OCCCC4CCCCC4)nc31)[C@H](O)[C@@H]2O`, for which the Ki came out at 6.42 nM.

Another assay concerns the target T2, Adenosine receptor A1 (Mus musculus, UniProt Q60612).
T2 sequence (Q60612 whole entry): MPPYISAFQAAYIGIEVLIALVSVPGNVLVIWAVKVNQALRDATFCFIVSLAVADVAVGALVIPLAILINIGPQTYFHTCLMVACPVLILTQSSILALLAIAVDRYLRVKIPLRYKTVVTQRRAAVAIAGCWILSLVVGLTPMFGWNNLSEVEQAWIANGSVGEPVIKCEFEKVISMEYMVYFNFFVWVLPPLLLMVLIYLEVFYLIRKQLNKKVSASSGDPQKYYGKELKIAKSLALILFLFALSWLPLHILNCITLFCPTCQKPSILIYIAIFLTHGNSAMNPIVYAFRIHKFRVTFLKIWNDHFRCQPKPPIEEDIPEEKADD
Description: Displacement of [3H] N6-R-phenylisopropyladenosine from mouse A1A receptor stably expressed in HEK293 cell membrane by radioligand inhibition assay. The assay is classed as cell membranes.
Conditions: not given
Compound `CNC(=O)[C@@]12C[C@@H]1[C@@H](n1cnc3c(NCc4ccc(O)c(OC)c4)nc(C#Cc4ccc(Cl)s4)nc31)[C@H](O)[C@@H]2O` yielded a Ki of 2330 nM.
Still for that read-out and setting: as for `CNC(=O)[C@@]12C[C@@H]1[C@@H](n1cnc3c(NCCc4ccc(O)c(OC)c4)nc(C#Cc4ccc(Cl)s4)nc31)[C@H](O)[C@@H]2O`, the figure is 3.75 nM; as for `CNC(=O)[C@@]12C[C@@H]1[C@@H](n1cnc3c(NCCc4ccc(OC)c(OC)c4)nc(I)nc31)[C@H](O)[C@@H]2O`, 842 nM.

The next assay addresses T3, Adenosine receptor A2a (Homo sapiens, UniProt P29274). Description: Binding affinity to human adenosine A2A receptor expressed in human HEK293 cell membrane at 10 uM by radioligand inhibition assay. The assay is classed as cell membranes.
Conditions: not given
In turn, `CNC(=O)[C@@]12C[C@@H]1[C@@H](n1cnc3c(NCCc4ccccc4)nc(C#Cc4ccccc4Cl)nc31)[C@H](O)[C@@H]2O` came in with an inhibition of 30%.
Compound `CCOC(=O)[C@@]12C[C@@H]1[C@@H](n1cnc3c(NCCc4ccccc4)nc(C#Cc4ccc(Cl)s4)nc31)[C@H](O)[C@@H]2O` returned an inhibition of 24%.
The same measure, in the same setting: as for `CCOC(=O)[C@@]12C[C@@H]1[C@@H](n1cnc3c(NCCc4ccc(O)c(OC)c4)nc(C#Cc4ccc(Cl)s4)nc31)[C@H](O)[C@@H]2O`, the figure is 33%; as for `CNC(=O)[C@@]12C[C@@H]1[C@@H](n1cnc3c(NCCc4ccc(OC)c(OC)c4)nc(C#Cc4ccc(Br)s4)nc31)[C@H](O)[C@@H]2O`, 36%; as for `CNC(=O)[C@@]12C[C@@H]1[C@@H](n1cnc3c(NCCc4ccc(OC)c(O)c4)nc(C#Cc4ccc(Cl)s4)nc31)[C@H](O)[C@@H]2O`, 34%.
On the same count and under the same terms, under `CNC(=O)[C@@]12C[C@@H]1[C@@H](n1cnc3c(NCCc4ccc(O)c(OC)c4)nc(C#Cc4ccc(Cl)s4)nc31)[C@H](O)[C@@H]2O` stands 31%.
Same read-out and setting: under `CNC(=O)[C@@]12C[C@@H]1[C@@H](n1cnc3c(NCCc4ccc(O)c(OC)c4)nc(C#Cc4cccs4)nc31)[C@H](O)[C@@H]2O` stands 37%; under `CCOC(=O)[C@@]12C[C@@H]1[C@@H](n1cnc3c(NCCc4ccc(OC)c(O)c4)nc(C#Cc4ccc(Cl)s4)nc31)[C@H](O)[C@@H]2O`, 25%.

For the next assay, the target named is T4, Adenosine receptor A3 (Homo sapiens, UniProt P0DMS8).
T4 sequence (P0DMS8 whole entry): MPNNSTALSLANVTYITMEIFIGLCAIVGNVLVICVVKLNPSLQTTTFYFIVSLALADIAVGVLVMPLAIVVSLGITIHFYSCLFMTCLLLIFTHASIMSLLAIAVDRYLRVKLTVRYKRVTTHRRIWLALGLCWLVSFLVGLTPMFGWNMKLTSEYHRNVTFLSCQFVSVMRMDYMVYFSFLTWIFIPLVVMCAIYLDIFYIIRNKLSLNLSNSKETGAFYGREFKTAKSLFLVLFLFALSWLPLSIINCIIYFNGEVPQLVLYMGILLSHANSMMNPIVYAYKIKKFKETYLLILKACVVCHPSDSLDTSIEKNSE
Put plainly: Agonist activity at human adenosine A3A receptor stably expressed in HEK293 cells assessed as mini G-alpha recruitment potency by luciferase based NanoBiT assay. In kind it is functional, cell-based.
Conditions: not given
As for `CNC(=O)[C@@]12C[C@@H]1[C@@H](n1cnc3c(NCCc4ccc(O)c(OC)c4)nc(C#Cc4ccc(Cl)s4)nc31)[C@H](O)[C@@H]2O`, the EC50 was 43.9 nM.

A further assay concerns the target T4, Adenosine receptor A3. Description: Agonist activity at human adenosine A3A receptor stably expressed in HEK293 cells assessed as beta arrestin 2 recruitment potency by luciferase based NanoBiT assay. In kind it is functional, cell-based.
Conditions: not given
For orientation: Recruitment of arrestin is a read-out of receptor activation apart from second messengers.
As for `CNC(=O)[C@@]12C[C@@H]1[C@@H](n1cnc3c(NCCc4ccc(O)c(OC)c4)nc(C#Cc4ccc(Cl)s4)nc31)[C@H](O)[C@@H]2O`, the EC50 came to 39.7 nM.

In another assay the target is T5, Adenosine receptor A1 (Homo sapiens) (UniProt P30542).
T5 sequence (whole entry): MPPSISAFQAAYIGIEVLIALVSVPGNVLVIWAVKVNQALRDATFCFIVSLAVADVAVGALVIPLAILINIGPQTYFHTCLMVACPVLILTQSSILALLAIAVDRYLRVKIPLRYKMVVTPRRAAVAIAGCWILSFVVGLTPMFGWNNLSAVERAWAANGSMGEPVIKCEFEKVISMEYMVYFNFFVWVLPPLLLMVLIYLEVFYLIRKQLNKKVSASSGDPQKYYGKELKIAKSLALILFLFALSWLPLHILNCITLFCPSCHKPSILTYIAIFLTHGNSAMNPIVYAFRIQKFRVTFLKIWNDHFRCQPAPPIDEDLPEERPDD
Description: Binding affinity to human adenosine A1A receptor expressed in human HEK293 cell membrane at 10 uM by radioligand inhibition assay. In kind it is cell membranes.
Conditions: not given
As to `CNC(=O)[C@@]12C[C@@H]1[C@@H](n1cnc3c(NCCc4ccccc4)nc(C#Cc4ccccc4Cl)nc31)[C@H](O)[C@@H]2O`, the inhibition stood at 27%.
For the compound `CCOC(=O)[C@@]12C[C@@H]1[C@@H](n1cnc3c(NCCc4ccc(O)c(OC)c4)nc(C#Cc4ccc(Cl)s4)nc31)[C@H](O)[C@@H]2O`, the inhibition came out at 0%.
Still for that read-out and setting: under `CNC(=O)[C@@]12C[C@@H]1[C@@H](n1cnc3c(NCCc4ccc(OC)c(O)c4)nc(C#Cc4ccc(Cl)s4)nc31)[C@H](O)[C@@H]2O` stands 0%; under `CNC(=O)[C@@]12C[C@@H]1[C@@H](n1cnc3c(NCCc4ccc(O)c(OC)c4)nc(C#Cc4cccs4)nc31)[C@H](O)[C@@H]2O`, 12%.
In turn, `CCOC(=O)[C@@]12C[C@@H]1[C@@H](n1cnc3c(NCCc4ccc(OC)c(O)c4)nc(C#Cc4ccc(Cl)s4)nc31)[C@H](O)[C@@H]2O` yielded an inhibition of 7%.
On the same count and under the same terms, under `COc1cc(CCNc2nc(OCC(C)C)nc3c2ncn3[C@H]2[C@H](O)[C@H](O)[C@@H]3C[C@@H]32)ccc1O` stands 4%.

A further assay concerns the target T4, Adenosine receptor A3. Put plainly: Displacement of [125I] N6-(4-amino-3-iodobenzyl)adenosine-5'-N-methyluronamide from human A3A receptor stably expressed in HEK293 cell membrane by radioligand inhibition assay. In kind it is cell membranes.
Conditions: not given
For `CNC(=O)[C@@]12C[C@@H]1[C@@H](n1cnc3c(NCCc4ccccc4)nc(C#Cc4ccccc4Cl)nc31)[C@H](O)[C@@H]2O`, the inhibition constant (Ki) was 0.58 nM.
Still for that read-out and setting: as for `CCOC(=O)[C@@]12C[C@@H]1[C@@H](n1cnc3c(NCCc4ccccc4)nc(C#Cc4ccc(Cl)s4)nc31)[C@H](O)[C@@H]2O`, the figure is 60.8 nM; as for `CCOC(=O)[C@@]12C[C@@H]1[C@@H](n1cnc3c(NCCc4ccc(O)c(OC)c4)nc(C#Cc4ccc(Cl)s4)nc31)[C@H](O)[C@@H]2O`, 37.4 nM; as for `CNC(=O)[C@@]12C[C@@H]1[C@@H](n1cnc3c(NCCc4ccc(OC)c(OC)c4)nc(C#Cc4ccc(Br)s4)nc31)[C@H](O)[C@@H]2O`, 8.01 nM.
For the compound `CNC(=O)[C@@]12C[C@@H]1[C@@H](n1cnc3c(NCCc4ccc(OC)c(O)c4)nc(C#Cc4ccc(Cl)s4)nc31)[C@H](O)[C@@H]2O`, the Ki was 8.31 nM.
Consider `O[C@@H]1[C@H](O)[C@@H]2C[C@@H]2[C@H]1n1cnc2c(NCCc3ccccc3)nc(I)nc21`, for which the Ki is 23.1 nM.
The same measure, in the same setting: as for `CNC(=O)[C@@]12C[C@@H]1[C@@H](n1cnc3c(NCCc4ccc(O)c(OC)c4)nc(C#Cc4ccc(Cl)s4)nc31)[C@H](O)[C@@H]2O`, the figure is 5.29 nM; as for `CNC(=O)[C@@]12C[C@@H]1[C@@H](n1cnc3c(NCCc4ccc(O)c(OC)c4)nc(C#Cc4cccs4)nc31)[C@H](O)[C@@H]2O`, 3.33 nM; as for `CCOC(=O)[C@@]12C[C@@H]1[C@@H](n1cnc3c(NCCc4ccc(OC)c(O)c4)nc(C#Cc4ccc(Cl)s4)nc31)[C@H](O)[C@@H]2O`, 32.8 nM.
Same read-out and setting: under `COc1cc(CCNc2nc(OCC(C)C)nc3c2ncn3[C@H]2[C@H](O)[C@H](O)[C@@H]3C[C@@H]32)ccc1O` stands 13.1 nM.

A further assay has as its target T3, Adenosine receptor A2a. Description: Displacement of [3H]-2-p-2-(carboxyethyl)phenyl-ethylamino-5'-N-ethylcarboxamidoadenosine from human A2A receptor stably expressed in HEK293 cell membrane by radioligand inhibition assay. In kind it is cell membranes.
Conditions: not given
Regarding `CNC(=O)[C@@]12C[C@@H]1[C@@H](n1cnc3c(NCc4ccc(O)c(OC)c4)nc(C#Cc4ccc(Cl)s4)nc31)[C@H](O)[C@@H]2O`, the Ki is 8210 nM.
The same measure, in the same setting: as for `O[C@@H]1[C@H](O)[C@@H]2C[C@@H]2[C@H]1n1cnc2c(NCCc3ccccc3)nc(I)nc21`, the figure is 5860 nM; as for `COc1cc(CCNc2nc(OCC(C)C)nc3c2ncn3[C@H]2[C@H](O)[C@H](O)[C@@H]3C[C@@H]32)ccc1O`, 5050 nM.

Another assay deals with T6, Adenosine receptor A1 (Mus musculus) (UniProt Q60612).
T6 sequence (whole entry): T2 sequence (Q60612 whole entry)
Description: Binding affinity to mouse adenosine A1A receptor expressed in human HEK293 cell membrane by radioligand inhibition assay. The following applies: concentration not given here. Also on record: concentration or dose not given beside the values. In kind it is cell membranes.
Compound `CCOC(=O)[C@@]12C[C@@H]1[C@@H](n1cnc3c(NCCc4ccc(O)c(OC)c4)nc(C#Cc4ccc(Cl)s4)nc31)[C@H](O)[C@@H]2O` yielded an inhibition of 57%.
Same read-out and setting: as for `CNC(=O)[C@@]12C[C@@H]1[C@@H](n1cnc3c(NCCc4ccc(OC)c(O)c4)nc(C#Cc4ccc(Cl)s4)nc31)[C@H](O)[C@@H]2O`, the figure is 44%.
`CNC(=O)[C@@]12C[C@@H]1[C@@H](n1cnc3c(NCCc4ccc(O)c(OC)c4)nc(C#Cc4cccs4)nc31)[C@H](O)[C@@H]2O` displayed an inhibition of 47%.
With `CCOC(=O)[C@@]12C[C@@H]1[C@@H](n1cnc3c(NCCc4ccc(OC)c(O)c4)nc(C#Cc4ccc(Cl)s4)nc31)[C@H](O)[C@@H]2O`, the inhibition is 56%.
